Experimental data from ChEMBL document CHEMBL1136240, “Synthesis and anthelmintic activity of cyclohexadepsipeptides with (S,S,S,R,S,R)-configuration” (Bioorg Med Chem Lett, 2003).

Columns and labels:
Ovis aries [1] = test: In vivo antihelminthic activity against Haemonchus contortus in sheep at a dose of 0.250 mg kg-1; type: functional; conditions: dose 0.25 mg kg-1
[2] = LogP (Octanol-water partition coefficient) was measured at pH 2.3; type: physicochemical
Ovis aries [3] = test: In vivo antihelminthic activity against Haemonchus contortus in sheep at a dose of 0.50 mg kg-1; type: functional; conditions: dose 0.5 mg kg-1
Ovis aries [4] = test: In vivo antihelminthic activity against Haemonchus contortus in sheep at a dose of 0.05 mg kg-1; type: functional
Ovis aries [5] = test: In vivo antihelminthic activity against Haemonchus contortus in sheep at a dose of 0.10 mg kg-1; type: functional; conditions: dose 0.1 mg kg-1

SMILES | logD [2] | Egg reduction (Ovis aries [1]) | Egg reduction (Ovis aries [3]) | Egg reduction (Ovis aries [4]) | Egg reduction (Ovis aries [5])
CCC(C)[C@H]1C(=O)O[C@H](C(C)C)C(=O)N(C)[C@@H](C(C)CC)C(=O)O[C@H](C(C)C)C(=O)N(C)[C@@H](C(C)CC)C(=O)O[C@H](C(C)C)C(=O)N1C (stereo partly specified) |  |  | >=95% |  | 
CCC(C)[C@H]1C(=O)O[C@H](C)C(=O)N(C)[C@@H](C)C(=O)O[C@H](C)C(=O)N(C)[C@@H](C(C)CC)C(=O)O[C@H](C)C(=O)N1C (stereo partly specified) | 3.26 |  |  | >=95% | 
CCCC[C@H]1OC(=O)[C@H](C(C)CC)N(C)C(=O)[C@@H](C)OC(=O)[C@H](C(C)CC)N(C)C(=O)[C@@H](C)OC(=O)[C@H](C(C)CC)N(C)C1=O (stereo partly specified) | 5.14 |  |  |  | >=95%
CC[C@H](C)[C@H]1C(=O)O[C@H](C)C(=O)N(C)[C@@H]([C@@H](C)CC)C(=O)O[C@H](C)C(=O)N(C)[C@@H](C)C(=O)OC(C)C(=O)N1C (single isomer, unassigned) | 3.1 |  |  |  | >=95%

Continued, in another order:

logD [2] | SMILES | Egg reduction (Ovis aries [1]) | Egg reduction (Ovis aries [3]) | Egg reduction (Ovis aries [4]) | Egg reduction (Ovis aries [5])
4 | CCC(C)[C@H]1C(=O)O[C@H](C)C(=O)N(C)[C@@H](C(C)CC)C(=O)O[C@H](C)C(=O)N(C)[C@@H](C(C)CC)C(=O)OCC(=O)N1C (stereo partly specified) | >=95% |  |  | 
4.2 | CCC(C)[C@H]1C(=O)O[C@H](C)C(=O)N(C)[C@@H](C(C)CC)C(=O)O[C@H](C)C(=O)N(C)[C@@H](C(C)CC)C(=O)O[C@H](C)C(=O)N1C (stereo partly specified) |  | >=95% |  | 
